Reference: patent US20230331718A1, “COMPOSITIONS FOR MODULATING SPLICING” (Skyhawk Therapeutics, Inc., priority 2020, published 2023)

Experiments:
[1] = test system: SMN2 Splicing D7 (SMN Δ7 transcript); experiment: SMN Quantitative Splicing Assay (qPCR); assay type: cell-based, human; conditions: Homo sapiens, Fibroblast, 24 h, SMA patient fibroblasts (GM03813), 2.5 µM to 0.6 nM
Procedure: Spinal muscular atrophy (SMA) patient fibroblasts (GM03813, Coriell) were plated in 96-well plates at 50,000 cells/well. […] Treated cells were lysed and cDNA synthesized using the Fast Advanced Cells-to-Ct kit (Thermofisher A35378) according to the manufacturer’s instructions. 2 µL of each cDNA were used in qPCR reactions. […] Reactions were run in a Quant Studio 6 qPCR instrument with default settings.

SMN2 Protein = experiment: SMN Protein Assay (MSD); assay type: cell-based, human; conditions: SMA patient fibroblasts, 48 hours, 0.6 nM to 2.5 µM
Procedure: Spinal muscular atrophy (SMA) patient fibroblasts were plated in 96-well plates at 7,000 cells/well. Compounds were added in concentrations ranging from 0.6 nM to 2.5 µM, incubated for 48 hours and the cells were lysed with 100 µL of lysis buffer. 20 µL of lysate was used for SMN protein measurement by Mesoscale Discovery (MSD) assay developed by PharmOptima (Michigan). A standard curve prepared with SMN protein ranging from 1 µg/ml to 19.5pg/ml was used in each MSD plate to calculate the absolute SMN protein amount in each sample.

Work on `CCn1cnc2cc(-c3ncc(N(C)C4CC5CCCC(N5)C4F)nn3)c(O)cc2c1=O` (stereo not shown) [Compound 126] yielded an IC50 [1] of 101 to 500 nM and an EC50 (SMN2 Protein) of 51 to 100 nM.

`CN(c1cnc(-c2cc3c(F)cn(C)c(=O)c3cc2O)nn1)[C@@H]1CC2CC[C@](C)(N2)[C@@H]1F` [Compound 188] gave an IC50 [1] of 0.01 to 15 nM and an EC50 (SMN2 Protein) of 0.01 to 15 nM.

In the case of `CN(c1cnc(-c2cc3ncn(C)c(=O)c3cc2O)nn1)C1CC2CC[C@](C)(N2)[C@@H]1F` (stereo partly shown) [Compound 135], the IC50 [1] is reported as 0.01 to 15 nM and the EC50 (SMN2 Protein) is reported as 0.01 to 15 nM.

For `CCc1coc2cc(-c3ncc(N(C)[C@H]4C[C@@H]5CC[C@@H](N5)[C@H]4F)nn3)c(O)cc2c1=O` (single isomer, unassigned) [Compound 96], the IC50 [1] was 0.01 to 15 nM and the EC50 (SMN2 Protein) was 0.01 to 15 nM.

For `CNC(=O)c1ccc2cc(-c3ncc(N(C)[C@@H]4C[C@H]5CC[C@@H](C4)N5)nn3)c(O)cc2n1` [Compound 9], the EC50 (SMN2 Protein) was 0.01 to 15 nM.

`CN(c1cnc(-c2cc3ncn(C)c(=O)c3cc2O)nn1)C1CC2COCC(C1)N2` (stereo not shown) [Compound 148] was tested, and the IC50 [1] was 0.01 to 15 nM and the EC50 (SMN2 Protein) was 0.01 to 15 nM.

`CN(c1cnc(-c2cc3c(F)cn(C)c(=O)c3cc2O)nn1)C1CC2CCCC(N2)[C@H]1F` (stereo partly shown) [Compound 137] showed an IC50 [1] of 0.01 to 15 nM and an EC50 (SMN2 Protein) of 0.01 to 15 nM.

Compound `CN(c1cnc(-c2cc3c(F)cn(C)c(=O)c3cc2O)nn1)[C@@H]1CC2CC(F)(F)C(C1)N2` (stereo partly shown) [Compound 209] has an IC50 [1] of 51 to 100 nM and an EC50 (SMN2 Protein) of 101 to 500 nM.

`[2H]C([2H])([2H])n1ccc2cc(-c3ncc(N(C)[C@@H]4CC5CCC(N5)[C@@H]4F)nn3)c(O)cc2c1=O` (stereo partly shown) [Compound 158] gave an IC50 [1] of 0.01 to 15 nM and an EC50 (SMN2 Protein) of 0.01 to 15 nM.

`CN(c1cnc(-c2cc3c(F)cn(C)c(=O)c3cc2O)nn1)[C@H]1CC2CC(F)(F)C(C1)N2` (stereo partly shown) [Compound 210] gave an IC50 [1] of 0.01 to 15 nM and an EC50 (SMN2 Protein) of 0.01 to 15 nM.

`CCn1ccc2cc(O)c(-c3ncc(N(C)[C@@H]4C[C@H]5CCC(N5)[C@@H]4F)nn3)cc2c1=O` [Compound 83] gave an IC50 [1] of 101 to 500 nM and an EC50 (SMN2 Protein) of 16 to 50 nM.

For `CCn1cc(F)c2cc(-c3ncc(N(C)[C@@H]4CC5COCC(N5)[C@@H]4F)nn3)c(O)cc2c1=O` (stereo partly shown) [Compound 222], the IC50 [1] was 101 to 500 nM.

Work on `CN(c1cnc(-c2cc3c(F)cn(C)c(=O)c3cc2O)nn1)C1CC2CCCC(N2)[C@@H]1F` (stereo partly shown) [Compound 138] yielded an IC50 [1] of 16 to 50 nM and an EC50 (SMN2 Protein) of 0.01 to 15 nM.

Compound `Cc1cc2cc(-c3ncc(N(C)[C@@H]4CC5CCCC(N5)[C@@H]4F)nn3)c(O)cc2cn1` (stereo partly shown) [Compound 47] has an IC50 [1] of 51 to 100 nM and an EC50 (SMN2 Protein) of 16 to 50 nM.

Compound `CCc1cc(=O)c2cc(-c3ncc(N(C)[C@@H]4C[C@H]5CCCC(N5)[C@@H]4F)nn3)c(O)cc2o1` [Compound 115] has an IC50 [1] of 101 to 500 nM and an EC50 (SMN2 Protein) of 16 to 50 nM.

In the case of `CCn1cc(F)c2cc(-c3ncc(N(C)[C@@H]4CC5CC(F)(F)C(C4)N5)nn3)c(O)cc2c1=O` (stereo partly shown) [Compound 211], the IC50 [1] is reported as 101 to 500 nM and the EC50 (SMN2 Protein) is reported as 501 to 10000 nM.

For `[2H]C([2H])([2H])n1cnc2cc(-c3ncc(N(C)[C@@H]4CC5CC[C@H](N5)[C@@H]4F)nn3)c(O)cc2c1=O` [Compound 178], the IC50 [1] was 0.01 to 15 nM and the EC50 (SMN2 Protein) was 0.01 to 15 nM.

In the case of `CN(c1cnc(-c2cc3occc(=O)c3cc2O)nn1)[C@@H]1CC2CCC[C@H](N2)[C@@H]1F` [Compound 60], the IC50 [1] is reported as 16 to 50 nM and the EC50 (SMN2 Protein) is reported as 0.01 to 15 nM.

For `CN(c1cnc(-c2cc3occ(C(F)(F)F)c(=O)c3cc2O)nn1)[C@H]1C[C@@H]2CC[C@@H](N2)[C@H]1F` [Compound 90], the IC50 [1] was 16 to 50 nM and the EC50 (SMN2 Protein) was 16 to 50 nM.

In the case of `CN(c1cnc(-c2cc3ncccc3cc2O)nn1)[C@H]1C[C@@H]2CCC(N2)[C@H]1F` [Compound 58], the IC50 [1] is reported as 16 to 50 nM and the EC50 (SMN2 Protein) is reported as 16 to 50 nM.

Compound `CCn1c(C)c(F)c2cc(-c3ncc(N(C)[C@H]4C[C@@H]5CCC(N5)[C@H]4F)nn3)c(O)cc2c1=O` [Compound 223] has an IC50 [1] of 0.01 to 15 nM and an EC50 (SMN2 Protein) of 0.01 to 15 nM.

With `CCn1cc(F)c2cc(-c3ncc(N(C)[C@H]4CC5COCC(N5)[C@H]4F)nn3)c(O)cc2c1=O` (stereo partly shown) [Compound 221] the IC50 [1] was 501 to 10000 nM.

`CN(c1cnc(-c2cc3c(F)cn(C)c(=O)c3cc2O)nn1)[C@H]1CC2COCC(N2)[C@H]1F` (stereo partly shown) [Compound 218] gave an IC50 [1] of 51 to 100 nM.

`CN(c1cnc(-c2cc3c(F)cn(C)c(=O)c3cc2O)nn1)[C@@H]1CC2COCC(N2)[C@@H]1F` (stereo partly shown) [Compound 219] showed an IC50 [1] of 16 to 50 nM.
